Assay results reported in patent publication US10786690B2, “Amide derivatives of polycaffeoylquinic acids, process for producing same and uses thereof” (TEMISIS, priority 2016, dated 2020).

Assays:
PGE2 = PGE2 production by NHEKs in the inflammatory state (PMA), ELISA; format: cell-based, human; settings: PMA 10 ng/ml 24 h, compounds 50 μM, indomethacin 10 μg/ml, relative to PMA induced control (100%)
Procedure: (§1) The study was carried out on Normal Human Epidermal Keratinocytes (NHEKs) (Lonza, CC-2507, origin: foreskin) in monolayer culture in Epilife medium (Invitrogen, M-EPI-500-A) containing the components of the Human Keratinocyte Growth Supplement (HKGS) mixture (Invitrogen, S-001-K) added separately, except hydrocortisone having anti-inflammatory properties.
For the quantification of IL-8 and PGE2, the inflammatory state of the NHEKs in culture was induced by treatment with PMA (phorbol myristate acetate/10 ng/ml/H2O) for 24 h. Induction of IL-6 was achieved by treatment with PMA (10 ng/ml/H2O) combined with calcium ionophore A23187 (2 μM/DMSO) in medium containing calcium at a concentration of 0.8 mM. TNF-α secretion was induced by a combination of PMA (10 ng/ml/H2O) and calcium ionophore A23187 (2 μM/DMSO) applied for 24 h (TNF-α) in medium containing 0.06 mM calcium. The reference molecules used are dexamethasone (10 μM/H2O) and indomethacin (10 μg/ml/ethanol).
(§2) The effect of the compounds was studied by applying them to the keratinocyte culture medium 2 h prior to induction of the inflammatory state as well as during induction (2 h for LTB4, 24 h for IL-8, PGE2, IL-6 and TNF-α).
(§3) Each condition was carried out in triplicate cultures and the supernatants were recovered at the end of the various treatments.
(§4) Quantification of the various inflammatory mediators was carried out with specific kits, based on a standard curve, according to the instructions provided by the kits' suppliers, R&D Systems and Cayman Chemical.
(§5) Before induction of the inflammatory state, the NHEKs were treated with the compounds and reference molecules for 2 h. The inflammatory state was then induced according to the conditions described in the methodology section, the culture supernatants were collected, and the various inflammatory mediators were quantified by the ELISA technique.
The effect of the compounds on PGE2 production is presented in FIG. 5 and is expressed as a percentage of the PMA treatment set at 100%.

LTB4 = LTB4 production by NHEKs in the inflammatory state (arachidonic acid + calcium ionophore), ELISA; format: cell-based, human; settings: arachidonic acid 1 μM + calcium ionophore A23187 2 h, compounds 50 μM, NDGA 2 μM, relative to induced control
Procedure: as §1
The induction of LTB4 production having a very fast kinetics, the scheme was adapted. In this case, the inflammatory state was induced for 2 h by applying arachidonic acid (a.a./1 μM/ethanol) combined with calcium ionophore A23187 (2 μM/DMSO). Nordihydroguaiaretic acid (NDGA) was used as reference molecule (2 μM/ethanol).
as §2, §3, §4, §5
The effects of the compounds on LTB4 production are shown in FIG. 8 and are expressed as a percentage of the treatment with arachidonic acid (a.a.) combined with calcium ionophore A23187 set at 100%.

TNF-α = TNF-α production by NHEKs in the inflammatory state (PMA + calcium ionophore, 0.06 mM Ca2+), ELISA; format: cell-based, human; settings: PMA + calcium ionophore A23187 24 h, compounds 50 μM, dexamethasone 10 μM, relative to induced control
Procedure: as §1
For the quantification of IL-8 and PGE2, the inflammatory state of the NHEKs in culture was induced by treatment with PMA (phorbol myristate acetate/10 ng/ml/H2O) for 24 h. Induction of IL-6 was achieved by treatment with PMA (10 ng/ml/H2O) combined with calcium ionophore A23187 (2 μM/DMSO) in medium containing calcium at a concentration of 0.8 mM. […]
as §4
as §5, with “technique. […]” for “technique.”

[1] = system: Normal Human Epidermal Keratinocytes (NHEKs); test: Microscopic observation of NHEK cell survival 48 h after inflammatory treatment; format: cell-based
Procedure: The cells, treated and not treated by the compounds to be tested, were observed under an optical microscope 48 h after the following inflammatory treatment: 10 ng/mL PMA/H2O+2 μM calcium ionophore A23187/DMSO.
NHEKs were brought into contact or not with the compounds to be tested. After 2 h, the cells underwent or not an inflammation treatment (10 ng/mL PMA/H2O+2 μM calcium ionophore A23187/DMSO).
The cells were observed under an optical microscope 48 h after the inflammatory treatment.

With `CCCCCCCCNC(=O)[C@]1(O)C[C@@H](OC(=O)/C=C/c2ccc(O)c(O)c2)[C@@H](O)[C@H](OC(=O)/C=C/c2ccc(O)c(O)c2)C1` [PAT1657, (2E,2′E)-((1R,2S,3R,5S)-2,5-dihydroxy-5-(octylcarbamoyl)cyclohexane-1,3-diyl) bis(3-(3,4-dihydroxyphenyl)acrylate)] the PGE2 production (PGE2) was “very highly significantly decrease”, the LTB4 production (LTB4) was “block/decrease, in a very highly significant manner” and the TNF-α production (TNF-α) was “most marked effects and are more effective than dexamethasone itself”. The “Result at 48 h: cell survival” value ([1]; NHEK cultures 48 h after inflammatory treatment (10 ng/mL PMA + 2 μM calcium ionophore A23187), microscopic observation) was “Confluent culture: 100%” and the “effect on cell survival / cellular protection against inflammation” value ([1]; NHEK cultures 48 h after inflammatory treatment, summary in words) was “strong cellular protection against inflammation”.
